Test system: pigweed (Amaranthus retroflexus)
Experiment: Test A preemergence, pigweed
Type: in vivo
Conditions: 125 g ai/ha, 0 to 100 scale
Source text: (§1) Seeds of plant species selected from barnyardgrass (Echinochloa crus-galli), crabgrass (large crabgrass, Digitaria sanguinalis), kochia (Kochia scoparia), ragweed (common ragweed, Ambrosia elatior), morningglory (Ipomoea spp.), velvetleaf (Abutilon theophrasti), ryegrass, It. (Italian ryegrass, Lolium multiflorum), foxtail, giant (giant foxtail, Setaria faberii), wheat (Triticum aestivum), corn (Zea mays), and pigweed (Amaranthus retroflexus), were planted into a blend of loam soil and sand and treated preemergence with a directed soil spray using test chemicals formulated in a non-phytotoxic solvent mixture which included a surfactant. At the same time, plants selected from these crop and weed species and also blackgrass (Alopecurus myosuroides), and galium (catchweed bedstraw, Galium aparine), were planted in pots containing the same blend of loam soil and sand and treated with postemergence applications of test chemicals formulated in the same manner. Plants ranged in height from 2 to 10 cm and were in the one- to two-leaf stage for the postemergence treatment. Treated plants and untreated controls were maintained in a greenhouse for approximately 10 d, after which time all treated plants were compared to untreated controls and visually evaluated for injury. Plant response ratings, summarized in Table A, are based on a 0 to 100 scale where 0 is no effect and 100 is complete control. A dash (-) response means no test result.

Structure (SMILES) | Plant response rating, Pigweed
O=C1NCC(Cc2ccccc2C(F)(F)F)C1C(=O)Nc1ccccc1C(F)(F)F (stereo not drawn) [Compound 5] | 0

Same assay, conditions: 500 g ai/ha, 0 to 100 scale

Structure (SMILES) | Plant response rating, Pigweed
O=C1NCC(Cc2ccccc2C(F)(F)F)C1C(=O)Nc1ccccc1C(F)(F)F (stereo not drawn) [Compound 5] | 0

Test system: barnyardgrass (Echinochloa crus-galli)
Experiment: Test A postemergence, barnyardgrass
Type: in vivo
Conditions: 125 g ai/ha, 0 to 100 scale
Source text: as §1

Structure (SMILES) | Plant response rating, Barnyardgrass
O=C1NCC(Cc2ccccc2C(F)(F)F)C1C(=O)Nc1ccccc1C(F)(F)F (stereo not drawn) [Compound 5] | 0

Same assay, conditions: 500 g ai/ha, 0 to 100 scale

Structure (SMILES) | Plant response rating, Barnyardgrass
O=C1NCC(Cc2ccccc2C(F)(F)F)C1C(=O)Nc1ccccc1C(F)(F)F (stereo not drawn) [Compound 5] | 0

Test system: ryegrass, It. (Italian ryegrass, Lolium multiflorum)
Experiment: Test A preemergence, ryegrass, It.
Type: in vivo
Conditions: 125 g ai/ha, 0 to 100 scale
Source text: as §1

Structure (SMILES) | Plant response rating, Ryegrass, It.
O=C1NCC(Cc2ccccc2C(F)(F)F)C1C(=O)Nc1ccccc1C(F)(F)F (stereo not drawn) [Compound 5] | 0

Same assay, conditions: 500 g ai/ha, 0 to 100 scale

Structure (SMILES) | Plant response rating, Ryegrass, It.
O=C1NCC(Cc2ccccc2C(F)(F)F)C1C(=O)Nc1ccccc1C(F)(F)F (stereo not drawn) [Compound 5] | 0

Test system: kochia (Kochia scoparia)
Experiment: Test A postemergence, kochia
Type: in vivo
Conditions: 125 g ai/ha, 0 to 100 scale
Source text: as §1

Structure (SMILES) | Plant response rating, Kochia
O=C1NCC(Cc2ccccc2C(F)(F)F)C1C(=O)Nc1ccccc1C(F)(F)F (stereo not drawn) [Compound 5] | 0

Same assay, conditions: 500 g ai/ha, 0 to 100 scale

Structure (SMILES) | Plant response rating, Kochia
O=C1NCC(Cc2ccccc2C(F)(F)F)C1C(=O)Nc1ccccc1C(F)(F)F (stereo not drawn) [Compound 5] | 0

Test system: pigweed (Amaranthus retroflexus)
Experiment: Test A postemergence, pigweed
Type: in vivo
Conditions: 125 g ai/ha, 0 to 100 scale
Source text: as §1

Structure (SMILES) | Plant response rating, Pigweed
O=C1NCC(Cc2ccccc2C(F)(F)F)C1C(=O)Nc1ccccc1C(F)(F)F (stereo not drawn) [Compound 5] | 0

Same assay, conditions: 500 g ai/ha, 0 to 100 scale

Structure (SMILES) | Plant response rating, Pigweed
O=C1NCC(Cc2ccccc2C(F)(F)F)C1C(=O)Nc1ccccc1C(F)(F)F (stereo not drawn) [Compound 5] | 0

Test system: ducksalad (Heteranthera limosa)
Experiment: Test B flooded paddy test, ducksalad
Type: in vivo
Conditions: Flood, 500 g ai/ha; scale of 0 to 100 where 0 is no effect and 100 is complete control; 13 to 15 d
Description: (§2) Plant species in the flooded paddy test selected from rice (Oryza sativa), sedge, umbrella (small-flower umbrella sedge, Cyperus difformis), ducksalad (Heteranthera limosa), and barnyardgrass (Echinochloa crus-galli) were grown to the 2-leaf stage for testing. At time of treatment, test pots were flooded to 3 cm above the soil surface, treated by application of test compounds directly to the paddy water, and then maintained at that water depth for the duration of the test. Treated plants and controls were maintained in a greenhouse for 13 to 15 d, after which time all species were compared to controls and visually evaluated. Plant response ratings, summarized in Table B, are based on a scale of 0 to 100 where 0 is no effect and 100 is complete control. A dash (-) response means no test result.

Structure (SMILES) | Plant response rating, Ducksalad
O=C1NCC(Cc2ccccc2C(F)(F)F)C1C(=O)Nc1ccccc1C(F)(F)F (stereo not drawn) [Compound 5] | 0

Test system: sedge, umbrella (small-flower umbrella sedge, Cyperus difformis)
Experiment: Test B flooded paddy test, sedge, umbrella
Type: in vivo
Conditions: Flood, 500 g ai/ha; scale of 0 to 100 where 0 is no effect and 100 is complete control; 13 to 15 d
Description: as §2

Structure (SMILES) | Plant response rating, Sedge, Umbrella
O=C1NCC(Cc2ccccc2C(F)(F)F)C1C(=O)Nc1ccccc1C(F)(F)F (stereo not drawn) [Compound 5] | 0

Test system: galium (catchweed bedstraw, Galium aparine)
Experiment: Test A postemergence, galium
Type: in vivo
Conditions: 125 g ai/ha, 0 to 100 scale
Source text: as §1

Structure (SMILES) | Plant response rating, Galium
O=C1NCC(Cc2ccccc2C(F)(F)F)C1C(=O)Nc1ccccc1C(F)(F)F (stereo not drawn) [Compound 5] | 0

Same assay, conditions: 500 g ai/ha, 0 to 100 scale

Structure (SMILES) | Plant response rating, Galium
O=C1NCC(Cc2ccccc2C(F)(F)F)C1C(=O)Nc1ccccc1C(F)(F)F (stereo not drawn) [Compound 5] | 0

Test system: foxtail, giant (giant foxtail, Setaria faberii)
Experiment: Test A preemergence, foxtail, giant
Type: in vivo
Conditions: 125 g ai/ha, 0 to 100 scale
Source text: as §1

Structure (SMILES) | Plant response rating, Foxtail, Giant
O=C1NCC(Cc2ccccc2C(F)(F)F)C1C(=O)Nc1ccccc1C(F)(F)F (stereo not drawn) [Compound 5] | 0

Same assay, conditions: 500 g ai/ha, 0 to 100 scale

Structure (SMILES) | Plant response rating, Foxtail, Giant
O=C1NCC(Cc2ccccc2C(F)(F)F)C1C(=O)Nc1ccccc1C(F)(F)F (stereo not drawn) [Compound 5] | 0

Test system: blackgrass (Alopecurus myosuroides)
Experiment: Test A postemergence, blackgrass
Type: in vivo
Conditions: 125 g ai/ha, 0 to 100 scale
Source text: as §1

Structure (SMILES) | Plant response rating, Blackgrass
O=C1NCC(Cc2ccccc2C(F)(F)F)C1C(=O)Nc1ccccc1C(F)(F)F (stereo not drawn) [Compound 5] | 0

Same assay, conditions: 500 g ai/ha, 0 to 100 scale

Structure (SMILES) | Plant response rating, Blackgrass
O=C1NCC(Cc2ccccc2C(F)(F)F)C1C(=O)Nc1ccccc1C(F)(F)F (stereo not drawn) [Compound 5] | 0

Test system: rice (Oryza sativa)
Experiment: Test B flooded paddy test, rice
Type: in vivo
Conditions: Flood, 500 g ai/ha; scale of 0 to 100 where 0 is no effect and 100 is complete control; 13 to 15 d
Description: as §2

Structure (SMILES) | Plant response rating, Rice
O=C1NCC(Cc2ccccc2C(F)(F)F)C1C(=O)Nc1ccccc1C(F)(F)F (stereo not drawn) [Compound 5] | 0

Test system: ragweed (common ragweed, Ambrosia elatior)
Experiment: Test A postemergence, ragweed
Type: in vivo
Conditions: 125 g ai/ha, 0 to 100 scale
Source text: as §1

Structure (SMILES) | Plant response rating, Ragweed
O=C1NCC(Cc2ccccc2C(F)(F)F)C1C(=O)Nc1ccccc1C(F)(F)F (stereo not drawn) [Compound 5] | 0

Same assay, conditions: 500 g ai/ha, 0 to 100 scale

Structure (SMILES) | Plant response rating, Ragweed
O=C1NCC(Cc2ccccc2C(F)(F)F)C1C(=O)Nc1ccccc1C(F)(F)F (stereo not drawn) [Compound 5] | 0

Test system: foxtail, giant (giant foxtail, Setaria faberii)
Experiment: Test A postemergence, foxtail, giant
Type: in vivo
Conditions: 125 g ai/ha, 0 to 100 scale
Source text: as §1

Structure (SMILES) | Plant response rating, Foxtail, Giant
O=C1NCC(Cc2ccccc2C(F)(F)F)C1C(=O)Nc1ccccc1C(F)(F)F (stereo not drawn) [Compound 5] | 0

Same assay, conditions: 500 g ai/ha, 0 to 100 scale

Structure (SMILES) | Plant response rating, Foxtail, Giant
O=C1NCC(Cc2ccccc2C(F)(F)F)C1C(=O)Nc1ccccc1C(F)(F)F (stereo not drawn) [Compound 5] | 0

Test system: barnyardgrass (Echinochloa crus-galli)
Experiment: Test A preemergence, barnyardgrass
Type: in vivo
Conditions: 125 g ai/ha, 0 to 100 scale
Source text: as §1

Structure (SMILES) | Plant response rating, Barnyardgrass
O=C1NCC(Cc2ccccc2C(F)(F)F)C1C(=O)Nc1ccccc1C(F)(F)F (stereo not drawn) [Compound 5] | 0

Same assay, conditions: 500 g ai/ha, 0 to 100 scale

Structure (SMILES) | Plant response rating, Barnyardgrass
O=C1NCC(Cc2ccccc2C(F)(F)F)C1C(=O)Nc1ccccc1C(F)(F)F (stereo not drawn) [Compound 5] | 0

Test system: ragweed (common ragweed, Ambrosia elatior)
Experiment: Test A preemergence, ragweed
Type: in vivo
Conditions: 125 g ai/ha, 0 to 100 scale
Source text: as §1

Structure (SMILES) | Plant response rating, Ragweed
O=C1NCC(Cc2ccccc2C(F)(F)F)C1C(=O)Nc1ccccc1C(F)(F)F (stereo not drawn) [Compound 5] | 0

Same assay, conditions: 500 g ai/ha, 0 to 100 scale

Structure (SMILES) | Plant response rating, Ragweed
O=C1NCC(Cc2ccccc2C(F)(F)F)C1C(=O)Nc1ccccc1C(F)(F)F (stereo not drawn) [Compound 5] | 0

Test system: kochia (Kochia scoparia)
Experiment: Test A preemergence, kochia
Type: in vivo
Conditions: 125 g ai/ha, 0 to 100 scale
Source text: as §1

Structure (SMILES) | Plant response rating, Kochia
O=C1NCC(Cc2ccccc2C(F)(F)F)C1C(=O)Nc1ccccc1C(F)(F)F (stereo not drawn) [Compound 5] | 0

Same assay, conditions: 500 g ai/ha, 0 to 100 scale

Structure (SMILES) | Plant response rating, Kochia
O=C1NCC(Cc2ccccc2C(F)(F)F)C1C(=O)Nc1ccccc1C(F)(F)F (stereo not drawn) [Compound 5] | 0

Test system: barnyardgrass (Echinochloa crus-galli)
Experiment: Test B flooded paddy test, barnyardgrass
Type: in vivo
Conditions: Flood, 500 g ai/ha; scale of 0 to 100 where 0 is no effect and 100 is complete control; 13 to 15 d
Description: as §2

Structure (SMILES) | Plant response rating, Barnyardgrass
O=C1NCC(Cc2ccccc2C(F)(F)F)C1C(=O)Nc1ccccc1C(F)(F)F (stereo not drawn) [Compound 5] | 0

Test system: wheat (Triticum aestivum)
Experiment: Test A postemergence, wheat
Type: in vivo
Conditions: 125 g ai/ha, 0 to 100 scale
Source text: as §1

Structure (SMILES) | Plant response rating, Wheat
O=C1NCC(Cc2ccccc2C(F)(F)F)C1C(=O)Nc1ccccc1C(F)(F)F (stereo not drawn) [Compound 5] | 0

Same assay, conditions: 500 g ai/ha, 0 to 100 scale

Structure (SMILES) | Plant response rating, Wheat
O=C1NCC(Cc2ccccc2C(F)(F)F)C1C(=O)Nc1ccccc1C(F)(F)F (stereo not drawn) [Compound 5] | 0

Test system: ryegrass, It. (Italian ryegrass, Lolium multiflorum)
Experiment: Test A postemergence, ryegrass, It.
Type: in vivo
Conditions: 125 g ai/ha, 0 to 100 scale
Source text: as §1

Structure (SMILES) | Plant response rating, Ryegrass, It.
O=C1NCC(Cc2ccccc2C(F)(F)F)C1C(=O)Nc1ccccc1C(F)(F)F (stereo not drawn) [Compound 5] | 0

Same assay, conditions: 500 g ai/ha, 0 to 100 scale

Structure (SMILES) | Plant response rating, Ryegrass, It.
O=C1NCC(Cc2ccccc2C(F)(F)F)C1C(=O)Nc1ccccc1C(F)(F)F (stereo not drawn) [Compound 5] | 0

Test system: corn (Zea mays)
Experiment: Test A postemergence, corn
Type: in vivo
Conditions: 125 g ai/ha, 0 to 100 scale
Source text: as §1

Structure (SMILES) | Plant response rating, Corn
O=C1NCC(Cc2ccccc2C(F)(F)F)C1C(=O)Nc1ccccc1C(F)(F)F (stereo not drawn) [Compound 5] | 0

Same assay, conditions: 500 g ai/ha, 0 to 100 scale

Structure (SMILES) | Plant response rating, Corn
O=C1NCC(Cc2ccccc2C(F)(F)F)C1C(=O)Nc1ccccc1C(F)(F)F (stereo not drawn) [Compound 5] | 0
